The source of these data is ChEMBL document CHEMBL1201862, “PubChem BioAssay data set” (2004).

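Cells were grown in 96-well plates and exposed to each compound for 48 hours at five concentrations; endpoints were interpolated linearly between bracketing concentrations, or set to the highest concentration if not reached. At the GI50, growth is halved.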 Active and inactive are the calls of the source. Rule as the data show it: active = GI50 up to about 1.1 µM and inactive = higher.

Among the test systems are HL-60; SK-MEL-28; HCT-15; RXF 393; CCRF-CEM; NCI-H522; SNB-19; K562; OVCAR-8; SN12C; OVCAR-5; NCI-H460; TK-10; SF-295; SF-539; IGROV-1; ACHN; SR; M14; HOP-92.
Common to all, as to experiment: growth of human tumour cells (NCI), 48 h

Turning to `CC(C)(C)c1cc(Cc2ccc(S(C)(=O)=O)cc2)c(O)c(C(C)(C)C)c1`, the GI50 in the test on HL-60 is 16.5 µM (inactive); in the test on SK-MEL-28, 18.2 µM (inactive); with HCT-15, 16.9 µM; in the test on RXF 393, 12.9 µM (inactive); with CCRF-CEM it was 12.3 µM (inactive); with NCI-H522, 12.1 µM (inactive). The GI50 with SNB-19 is 15.5 µM (inactive); in the test with K562 it was 13.8 µM (inactive); in the test on OVCAR-8 it was 14.7 µM (inactive); in the test on SN12C, 15.3 µM (inactive); with OVCAR-5, 14.4 µM (inactive); in the test on NCI-H460, 16.8 µM (inactive). The GI50 was 17.9 µM (inactive) with TK-10; 13.2 µM (inactive) with SF-295; 16.7 µM (inactive) with SF-539; 14.9 µM (inactive) with IGROV-1; 13.7 µM (inactive) in the test with ACHN; 13.2 µM (inactive) in the test with SR. Moreover, the GI50 in the test on M14 was 15.4 µM (inactive).
With `CC12C(=O)OC(=O)C1(C)C1C=CC2O1` (centres undefined), the GI50 in the test on HL-60 was > 100 µM (inactive); with SK-MEL-28, > 100 µM (inactive); with HCT-15, greater than 100 µM; in the test on RXF 393 it was 40.6 µM (inactive); in the test on CCRF-CEM, > 100 µM (inactive); in the test on NCI-H522, > 100 µM (inactive). For the same molecule, the GI50 in the test with SNB-19 was 37.8 µM (inactive); in the test on K562 it was > 100 µM (inactive); in the test with OVCAR-8 it was > 100 µM (inactive); with SN12C it was > 100 µM (inactive); with OVCAR-5, > 100 µM (inactive); in the test on NCI-H460, > 100 µM (inactive). Moreover, the GI50 is 78.7 µM (inactive) with TK-10; 62.8 µM (inactive) with SF-295; > 100 µM (inactive) in the test with SF-539; > 100 µM (inactive) with IGROV-1; > 100 µM (inactive) with ACHN; > 100 µM (inactive) in the test on SR. Further, the GI50 in the test with M14 is 64.9 µM (inactive).
In the case of `COc1cc(/C=C2\C[C@H]3[C@@H]4CCc5cc(O)ccc5[C@H]4CC[C@]3(C)C2=O)cc(OC)c1OC`, the GI50 in the test with SK-MEL-28 was 11.8 µM (inactive); with HCT-15, 25.8 µM; in the test with RXF 393, 9.57 µM (inactive); in the test with CCRF-CEM, 12.9 µM (inactive); in the test with NCI-H522, 1.83 µM (inactive); in the test on SNB-19, 19.9 µM (inactive). For the same molecule, the GI50 with K562 was 12.3 µM (inactive); with OVCAR-8, 15.5 µM (inactive); with SN12C, 15.1 µM (inactive); with OVCAR-5 it was 17.7 µM (inactive); with NCI-H460 it was 45.2 µM (inactive); in the test on TK-10, 8.81 µM (inactive). Also, the GI50 was 12.6 µM (inactive) with SF-295; 25.8 µM (inactive) in the test on SF-539; 15.3 µM (inactive) with IGROV-1; 15.5 µM (inactive) with ACHN; 3.21 µM (inactive) in the test on SR; 16.8 µM (inactive) in the test on M14.
`S=C1C=C(c2ccccc2)Sc2ccccc2N1`: the GI50 in the test with HL-60 is 53.8 µM (inactive); with SK-MEL-28 it was > 100 µM (inactive); in the test on HCT-15 it was greater than 100 µM; in the test on RXF 393 it was 8.95 µM (inactive); with CCRF-CEM it was 67.5 µM (inactive); in the test on NCI-H522 it was 44.5 µM (inactive). In addition, the GI50 in the test on SNB-19, with K562, in the test on OVCAR-8, with SN12C, in the test with OVCAR-5 and in the test on NCI-H460 was > 100 µM (inactive) in each case. Moreover, the GI50 is > 100 µM (inactive) with TK-10; > 100 µM (inactive) in the test on SF-295; > 100 µM (inactive) with IGROV-1; > 100 µM (inactive) with ACHN; > 100 µM (inactive) in the test with SR; 57.9 µM (inactive) in the test on M14.
As for `COc1cc(C2c3cc4c(cc3[C@@H](Nc3ccc(F)cc3)C3COC[C@H]23)OCO4)cc(OC)c1O` (some centres undefined), the GI50 is 0.533 µM (active) in the test with HL-60; 5 µM (inactive) with SK-MEL-28; 2.48 µM in the test with HCT-15; 0.622 µM (active) in the test with CCRF-CEM; 3.22 µM (inactive) in the test on NCI-H522; 0.885 µM (active) with SNB-19. The GI50 in the test on K562 was 4.19 µM (inactive); in the test with OVCAR-8, 2.8 µM (inactive); in the test on SN12C, 2 µM (inactive); in the test with OVCAR-5, 3.62 µM (inactive); in the test on NCI-H460 it was 0.152 µM (active); in the test on TK-10, 5.9 µM (inactive). For the same molecule, the GI50 is 0.877 µM (active) with SF-295; 0.75 µM (active) with SF-539; 11.9 µM (inactive) with IGROV-1; 1.03 µM (active) in the test with ACHN; 0.543 µM (active) in the test on SR; 2.22 µM (inactive) in the test with M14.
As for `O=C1NCCCC12CCCNC2=O`, the GI50 in the test on HL-60 is > 100 µM (inactive); in the test on SK-MEL-28, > 100 µM (inactive); in the test with HCT-15, greater than 100 µM; in the test on RXF 393, > 100 µM (inactive); with CCRF-CEM it was > 100 µM (inactive); in the test on NCI-H522, > 100 µM (inactive). Moreover, the GI50 in the test on SNB-19, in the test with K562, in the test on OVCAR-8, in the test with SN12C, in the test with NCI-H460 and with SF-295 was > 100 µM (inactive) each time. Moreover, the GI50 in the test on SF-539, in the test with IGROV-1, with ACHN, in the test with SR and in the test on M14 was > 100 µM (inactive) in each case.
For the molecule `Cc1ccc2c(c1-c1ccccc1)C(=O)OC2`, the GI50 in the test with HL-60 is > 100 µM (inactive); in the test on SK-MEL-28, > 100 µM (inactive); in the test with HCT-15, greater than 100 µM; with RXF 393, > 100 µM (inactive); in the test on CCRF-CEM, > 100 µM (inactive); in the test with NCI-H522, > 100 µM (inactive). The GI50 with SNB-19 is > 100 µM (inactive); with K562, 56.1 µM (inactive); in the test on OVCAR-8, > 100 µM (inactive); in the test with SN12C, > 100 µM (inactive); with TK-10, > 100 µM (inactive); in the test with IGROV-1, > 100 µM (inactive). The GI50 with ACHN is > 100 µM (inactive); with SR, 90.6 µM (inactive); in the test with M14 it was > 100 µM (inactive).
As for `CC(C)(C)[Si](C)(C)OC1(CCc2ccccc2OS(=O)(=O)C(F)(F)F)CCCC=C1COCc1ccccc1` (centres undefined), the GI50 is 2.42 µM (inactive) with HL-60; > 59.6 µM (inactive) in the test on SK-MEL-28; 12.5 µM in the test on HCT-15; 48.2 µM (inactive) in the test on RXF 393; 5.19 µM (inactive) in the test on CCRF-CEM; 2.79 µM (inactive) in the test with NCI-H522. Also, the GI50 in the test with K562 is 5.71 µM (inactive); in the test with TK-10, > 100 µM (inactive); in the test on SF-295 it was 6.34 µM (inactive); in the test on SF-539 it was > 100 µM (inactive); in the test with IGROV-1, 4.81 µM (inactive); with ACHN, 35.4 µM (inactive). The GI50 with SR was 1.86 µM (inactive).
For the molecule `CC(C)CCCC(C)[C@H]1CC[C@H]2[C@@H]3CC[C@H]4C[C@@H](CCC=C(c5cc(Cl)c(O)c(C(=O)O)c5)c5cc(Cl)c(O)c(C(=O)O)c5)CC[C@]4(C)[C@H]3CC[C@]12C` (some centres undefined), the GI50 in the test on HL-60 was > 50 µM (inactive); in the test with SK-MEL-28, > 50 µM (inactive); in the test on HCT-15 it was 36.1 µM; in the test with RXF 393, > 50 µM (inactive); in the test on CCRF-CEM it was > 50 µM (inactive); in the test on NCI-H522 it was > 50 µM (inactive). For the same molecule, the GI50 in the test with SNB-19 was > 50 µM (inactive); in the test on K562, 31.1 µM (inactive); with OVCAR-8, > 50 µM (inactive); in the test on SN12C it was > 50 µM (inactive); with OVCAR-5 it was > 50 µM (inactive); in the test with NCI-H460 it was 25.4 µM (inactive). The GI50 in the test on TK-10, with HOP-92, in the test with SF-295, with SF-539, with IGROV-1 and with ACHN was > 50 µM (inactive) in each case. For the same molecule, in the test on M14, the GI50 is > 50 µM (inactive).
On to `CCC1N2CCCCC2[C@@H]2c3[nH]c4ccccc4c3CCN12` (some centres undefined), for which the GI50 with HL-60 is > 100 µM (inactive); in the test on SK-MEL-28 it was > 100 µM (inactive); with HCT-15, greater than 100 µM; with RXF 393, > 100 µM (inactive); in the test on CCRF-CEM, > 100 µM (inactive); in the test with NCI-H522, > 100 µM (inactive). Also, the GI50 in the test on SNB-19, with K562, with OVCAR-8, in the test on SN12C, in the test with OVCAR-5 and with NCI-H460 was > 100 µM (inactive) throughout. For the same molecule, the GI50 in the test on TK-10, in the test on HOP-92, in the test on SF-295, with SF-539, with IGROV-1 and with ACHN was > 100 µM (inactive) in each case. The GI50 in the test with M14 is > 100 µM (inactive).
With `COc1cc2c3cc1Oc1c(O)c(OC)cc4c1C(Cc1ccc(O)c(c1)Oc1ccc(cc1)CC3N(C)CC2)N(C)CC4` (centres undefined), the GI50 is 21.5 µM (inactive) in the test with HL-60; 18.3 µM (inactive) in the test on SK-MEL-28; 11.6 µM in the test on HCT-15; 2.44 µM (inactive) in the test on RXF 393; 8.57 µM (inactive) in the test with CCRF-CEM; 15.1 µM (inactive) with NCI-H522. Besides, the GI50 in the test with SNB-19 was 26 µM (inactive); in the test with K562 it was 3.03 µM (inactive); in the test with OVCAR-8, 14.3 µM (inactive); in the test with SN12C, 15.3 µM (inactive); in the test with OVCAR-5 it was 22.7 µM (inactive); with NCI-H460, 15.1 µM (inactive). Also, the GI50 in the test with TK-10 is 13.6 µM (inactive); in the test with HOP-92, 11.9 µM (inactive); with SF-295, 16.1 µM (inactive); in the test on SF-539, 2.46 µM (inactive); with IGROV-1, 26.2 µM (inactive); with ACHN it was 19 µM (inactive). In addition, the GI50 in the test on M14 is 3.11 µM (inactive).
